Source: ChEMBL document CHEMBL5113385, “Natural products and synthetic analogues against HIV: A perspective to develop new potential anti-HIV drugs” (Eur J Med Chem, 2022)
Converted amounts (≈) assume the structure as drawn.

Assays:
C8166 = assay: Cytotoxicity against human C8166 cells assessed as reduction in cell viability by MTT assay; type: functional
[1] = test system: Human immunodeficiency virus 1; assay: Antiviral activity against HIV-1 infected in human C8166 cells assessed as reduction in virus-induced cytopathic effect by MTT assay; type: functional, organism-based; conditions: Human immunodeficiency virus 1, C8166
[2] = target: T1, Human immunodeficiency virus type 1 reverse transcriptase (Human immunodeficiency virus 1, UniProt Q72547); assay: Inhibition of recombinant HIV-1 reverse transcriptase using ABTS as substrate incubated for 1 hr by ELISA
[3] = target: Human immunodeficiency virus type 1 reverse transcriptase (Human immunodeficiency virus 1) (UniProt Q72547); assay: Inhibition of recombinant HIV-1 reverse transcriptase at 200 ug/ml by ELISA relative to control; conditions: dose 200.0 µg/ml
[4] = target: Human immunodeficiency virus type 1 reverse transcriptase (Human immunodeficiency virus 1) (UniProt Q72547); assay: Inhibition of HIV-1 reverse transcriptase at 200 ug/ml using poly(A) ribonucleotide as template and oligo d(T)16 as primer incubated for 1 hr by PicoGreen DNA fluorescence assay relative to control; conditions: dose 200.0 µg/ml
[5] = target: Human immunodeficiency virus type 1 reverse transcriptase (Human immunodeficiency virus 1) (UniProt Q72547); assay: Inhibition of HIV-1 reverse transcriptase using […] and oligo d(T)16 as primer at 200 ug/ml incubated for 1 hr by PicoGreen DNA fluorescence assay relative to control; conditions: dose 200.0 µg/ml
[6] = Selectivity index, ratio of IC50 for human 1A2 cells to EC50 for HIV-1 MC99 harboring deltaTat/Rev infected in human 1A2 cells; type: toxicity, cell-based; conditions: read-out: Ratio IC50/EC50
[7] = test system: Human immunodeficiency virus 1; assay: Antiviral activity against HIV-1 IIIB infected in human MT4 cells assessed as reduction in cytopathic effect measured after 5 days by Cell Titer Glo assay; type: functional, organism-based; conditions: Human immunodeficiency virus 1, IIIB, MT4, 120 h
[8] = target: T1, Human immunodeficiency virus type 1 reverse transcriptase; assay: Inhibition of HIV-1 LTR reverse transcriptase infected in human CEM cells using RNA template incubated for 1 hr by RT-PCR based cell-free assay
[9] = target: Human immunodeficiency virus type 1 reverse transcriptase (Human immunodeficiency virus 1) (UniProt Q72547); assay: Displacement of [3H]TTP/polyA from HIV-1 reverse transcriptase at 200 ug/ml relative to control; conditions: dose 200.0 µg/ml
[10] = target: Human immunodeficiency virus type 1 protease (Human immunodeficiency virus 1) (UniProt Q72874); assay: Inhibition of HIV-1 protease relative to control; conditions: concentration not given here
[11] = target: T1, Human immunodeficiency virus type 1 reverse transcriptase; assay: Inhibition of HIV-1 reverse transcriptase preincubated for 45 mins followed by substrate addition by immunoassay
[12] = test system: Human immunodeficiency virus 1; assay: Antiviral activity against HIV-1 NL4-3 infected in human MT4 cells assessed as reduction in viral replication incubated for 48 hrs followed by addition of fresh medium containing compound measured after 2 days by ELISA; type: functional, organism-based; conditions: Human immunodeficiency virus 1, NL4-3, MT4, 48 h
[13] = target: T1, Human immunodeficiency virus type 1 reverse transcriptase; assay: Inhibition of HIV-1 reverse transcriptase using ABTS as substrate and RNA template primed with oligo(dT)12-18 in presence of digoxigenin/biotin-labeled nucleotides by ELISA
[14] = test system: Human immunodeficiency virus 1; assay: Antiviral activity against HIV-1 assessed as viral growth inhibition; type: functional, organism-based
[15] = test system: Human immunodeficiency virus 1; assay: Antiviral activity against HIV-1 MC99 harboring deltaTat/Rev infected in human 1A2 cells assessed as reduction in syncytium formation preincubated for 1 hr followed by virus infection measured after 3 days by inverted microscopy; type: functional, organism-based; conditions: Human immunodeficiency virus 1, MC99, 1A2
Influenza A virus = assay: Antiviral activity against Influenza virus A/Puerto Rico/8/34 (H1N1) infected in MDCK cells assessed as reduction in viral titer preincubated for 1 hr followed by viral infection at MOI of 0.01 for 24 hrs and subsequent addition of culture medium and incubated for 48 hrs followed by addition of chicken erythrocytes measured after 40 mins by agglutination method; type: functional, organism-based
[16] = target: T1, Human immunodeficiency virus type 1 reverse transcriptase; assay: Inhibition of wild-type HIV-1 reverse transcriptase by Picogreen assay
[17] = test system: Human immunodeficiency virus 1; assay: Antiviral activity against HIV-1 NL4-3 infected in human TZM-bl cells assessed as viral growth inhibition by luciferase assay; type: functional, organism-based; conditions: Human immunodeficiency virus 1, NL4-3, TZM-bl

CC1(C)CCc2cc3cc(O)c(=O)oc3cc2O1
CC50 (C8166): > 200 µM

C=CC(CO)[C@@H]1C[C@H]2c3[nH]c4ccccc4c3CCN2C(=O)[C@H]1CO (stereo partly specified)
EC50 [1]: 12.2 µM

O=C(O)[C@]1(O)C[C@H](O)[C@@H](O)[C@@H](O)C1
IC50 [2]: 280 µM

COc1cc(-c2oc3cc(O)cc(O)c3c(=O)c2O)ccc1O
inhibition [3]: 57%

CO[C@H](Cc1cc2ccc(=O)oc2cc1O)C(C)(C)O
CC50 (C8166): > 200 µM

COc1cc(OC)c([C@@H]2CC[C@H]3C[C@@H](c4cc(OC)c(OC)cc4OC)Oc4cc(OC)c(O)c2c43)cc1OC
inhibition [4]: 41.4% | inhibition [5]: 41.4% | selectivity ratio [6]: 3.7

COc1cc(F)c(Nc2cc(N)nc(Nc3ccc(C#N)cc3)n2)c(F)c1
IC50 [7]: 2 nM

C#CCOCc1cn(C2CCON2C(=O)OCc2ccccc2)c(=O)[nH]c1=O (stereo unspecified)
IC50 [8]: 50 nM

O=c1c(O)c(-c2ccc(O)c(O)c2)oc2cc(O)cc(O)c12
inhibition [3]: 43.4%

O=c1cc(-c2ccc(O)c(O)c2)oc2c([C@@H]3O[C@H](CO)[C@@H](O)[C@H](O)[C@H]3O)c(O)cc(O)c12
inhibition [9]: 52%

C=C(C)[C@@H]1CC[C@@H]2[C@]3(CC[C@]4(C)[C@@H]([C@H](C)CC/C=C(/C)C(=O)O)CC[C@@]24C)C[C@]13CCC(=O)O
inhibition [10]: 89.2%

O=c1cc(-c2ccc(O)cc2)oc2c([C@@H]3O[C@H](CO)[C@@H](O)[C@H](O)[C@H]3O)c(O)cc(O)c12
inhibition [9]: 56.9%

O=C1CSC(c2ccc(F)cc2)N1c1nc2c(Cl)cccc2s1 (stereo unspecified)
IC50 [11]: < 1 nM

C=C(C)[C@]12C[C@@H](COC(C)=O)[C@@]34OC5(O[C@@H]1[C@@H]3[C@@H]1O[C@]1(CO)[C@@H](O)[C@@]1(O)[C@H]4[C@H]([C@H](C)[C@@H]1C(=O)c1ccccc1)[C@H](C)C[C@H](C(=O)c1ccccc1)[C@H](OC(C)=O)[C@@H](C(=O)c1ccccc1)CC[C@H]5O)O2
IC50 [12]: ≤ 0.25 nM

COC(=O)/C=C\c1c(-c2cccs2)[nH]c2ccccc12
IC50 [13]: 9.38 nM

COc1cc(F)c(C(=O)c2cc(N)nc(Nc3ccc(C#N)cc3)n2)c(F)c1
IC50 [7]: 4.2 nM

CC(C)=CCc1cc2ccc(=O)oc2c(CC=C(C)C)c1O
CC50 (C8166): > 200 µM

CCOc1ccc(S(=O)(=O)N2CCN(c3cc4c(cc3F)c(=O)c(C(=O)O)cn4CC)CC2)cc1
IC50 [14]: 80 nM

C=CC(CO)[C@@H]1C[C@H]2c3[nH]c4ccccc4c3CCN2C(=O)[C@@H]1CO (stereo partly specified)
EC50 [1]: 12.2 µM

COc1cc2cc3c(cc2oc1=O)OC(C)(C)CC3
CC50 (C8166): > 200 µM

COc1cc(F)c(Oc2cc(N)nc(Nc3ccc(C#N)cc3)n2)c(F)c1
IC50 [7]: 3 nM

CC(C)(O)C(=O)Cc1cc2ccc(=O)oc2cc1O [PEUCEDANONE]
CC50 (C8166): > 200 µM

COc1cc2c(c(O)c1OC)C(=O)C[C@@H](c1cc(O)c(OC)c(O)c1)O2
selectivity ratio [6]: 1.12 | EC50 [15]: < 8.02 µM

O=C1CSC(c2ccc(O)cc2)N1c1nc2ccc(Cl)cc2s1 (stereo unspecified)
IC50 [11]: 300 nM

Cc1cn([C@H]2C[C@H](n3cc(Cn4nnnc4CC(=O)N(C)C)nn3)[C@@H](CO)O2)c(=O)[nH]c1=O
IC50 (Influenza A virus): 39.6 µg/mL (≈ 86 µM)

N#Cc1ccc2c(Oc3ccccc3OCCn3ccc(=O)[nH]c3=O)cc(F)cc2c1
IC50 [16]: 4.8 nM

CC(C)=CCc1cc(/C=C/C(=O)O)cc(CC=C(C)C)c1
inhibition [3]: 41.6%

CCCCCOC(=O)C[C@H](NP(=O)(CO[C@@H](CF)Cn1ccc2c(=O)[nH]c(N)nc21)Oc1ccccc1)C(=O)OCCCCC (stereo partly specified)
IC50 [17]: 2000 nM
